Peptide text beside a SMILES is read from it.

For assay [1], the system named is Human endometrial endothelial (HEE) cells. The assay is described as follows: Cell proliferation assay, HEE cells. It counts as cell-based. The settings on record: 100 ng/ml; starvation medium with 0.25% FCS; cell numbers scored after 5 days. The protocol:
(§1) By using a proliferation and a migration (chemotaxis) assay the importance of HRG as well as HRG peptides was analyzed. The peptides used correspond to a fragment of full-length HRG containing 35 amino acids covering position 204 in the protein; the proline of native HRG in that specific position is changed to serine. The amino acid sequences are: […] NO: 7, named HRGPro herein) and […] NO: 8, named […] herein); the peptides were produced and purchased from Innovagen, Lund, Sweden. Cells (G10 and HEEC) in culture medium supplemented with 10% FCS were seeded into 24-well dishes. After 2 h the medium was changed to starvation medium (culture medium containing 0.25% FCS) and the incubation continued for an additional 24 h. The medium was changed again at day 2 and day 4 (starvation medium), and at the same time FGF-2 or VEGF, HRG or HRG Pro or Ser containing peptide were added. As a control, cells were cultured in basal culture medium supplemented with 10% FCS. Cell numbers were scored after 5 days. Human endometrial endothelial (HEE) cells were cultured in starvation medium containing culture medium (3 H) supplemented with 0.25% FCS.

Assay [2] has the same test system. The experiment in a line: Chemotaxis (migration) assay in modified Boyden chamber, HEE cells. In kind it is cell-based. The following applies: VEGF 10 ng/ml; for inhibition of VEGF-induced migration of HEE cells: 100 ng/ml in lower chamber, 4-6 h at 37° C. The procedure:
By using a proliferation and a migration (chemotaxis) assay the importance of HRG as well as HRG peptides was analyzed. The peptides used correspond to a fragment of full-length HRG containing 35 amino acids covering position 204 in the protein; the proline of native HRG in that specific position is changed to serine. The amino acid sequences are: […] NO: 7, named HRGPro herein) and […] NO: 8, named […] herein); the peptides were produced and purchased from Innovagen, Lund, Sweden. The assay was performed in a modified Boyden chamber using micropore nitrocellulose filters (8 μm thick, 8 μm pore) coated with type-1 collagen solution at 100 μg/ml (Vitrogen 100, Collagen Corp.). Cells (G10 and HEEC cells) were trypsinized and resuspended at a concentration of 5.5×10^5 cells/ml in serum-free culture medium containing 0.25% fetal calf serum (FCS). […] After 4-6 h at 37° C., the medium was removed and the cells sticking to the filter were fixed in pure methanol and stained with Giemsa stain. The cells that had migrated through the filter were counted. The effects of HRG, HRGPro and […] on migration of G10 and HEE cells were examined by using a Boyden chamber.

Assay [3] relates to G10 cells (Porcine aortic endothelial cells). The assay is described as follows: Chemotaxis (migration) assay in modified Boyden chamber, G10 cells. It counts as cell-based, pig. The settings on record: for inhibition of VEGF-induced migration of G10 cells: 100 ng/ml in lower chamber, 4-6 h at 37° C. The procedure: By using a proliferation and a migration (chemotaxis) assay the importance of HRG as well as HRG peptides was analyzed. The peptides used correspond to a fragment of full-length HRG containing 35 amino acids covering position 204 in the protein; the proline of native HRG in that specific position is changed to serine. The amino acid sequences are: […] (SEQ ID NO: 7, named HRGPro herein) and […] (SEQ ID NO: 8, named HRGSer herein); the peptides were produced and purchased from Innovagen, Lund, Sweden.
The assay was performed in a modified Boyden chamber using micropore nitrocellulose filters (8 μm thick, 8 μm pore) coated with type-1 collagen solution at 100 μg/ml (Vitrogen 100, Collagen Corp.). Cells (G10 and HEEC cells) were trypsinized and resuspended at a concentration of 5.5×10^5 cells/ml in serum-free culture medium containing 0.25% fetal calf serum (FCS). The cell suspension was placed in the upper chamber, and the serum-free medium containing 0.25% FCS and FGF-2 or VEGF, HRG or the HRGPro or HRGSer peptide, was placed below the filter in the lower chamber. As a positive control, medium containing 10% FCS was added to the lower chamber. After 4-6 h at 37° C., the medium was removed and the cells sticking to the filter were fixed in pure methanol and stained with Giemsa stain. The cells that had migrated through the filter were counted.
The effects of HRG, HRGPro and HRGSer on migration of G10 and HEE cells were examined by using a Boyden chamber.

Assay [4] shares this test system. The settings on record: 100 ng/ml; starvation medium (Ham's F12, 0.25% FCS); cell numbers scored after 5 days. The procedure:
as §1, with “G10 cells (Porcine aortic” for “Human endometrial”, “cells)” for “(HEE) cells”, “(Ham's F12)” for “(3 H)”

As to `CC(C)[C@H](NC(=O)[C@H](CC(N)=O)NC(=O)[C@@H]1CCCN1C(=O)[C@H](Cc1c[nH]cn1)NC(=O)[C@H](CCCNC(=N)N)NC(=O)[C@@H]1CCCN1C(=O)[C@H](Cc1ccccc1)NC(=O)[C@H](Cc1c[nH]cn1)NC(=O)[C@H](Cc1c[nH]cn1)NC(=O)[C@H](CCCNC(=N)N)NC(=O)[C@@H]1CCCN1C(=O)[C@H](CS)NC(=O)[C@H](CC(N)=O)NC(=O)[C@H](CCCNC(=N)N)NC(=O)[C@@H](NC(=O)[C@H](CO)NC(=O)[C@H](Cc1ccccc1)NC(=O)[C@H](CC(=O)O)NC(=O)[C@@H](NC(=O)[C@H](Cc1ccccc1)NC(=O)[C@H](Cc1ccc(O)cc1)NC(=O)CNC(=O)[C@@H](NC(=O)CNC(=O)[C@H](CCC(=O)O)NC(=O)CNC(=O)CNC(=O)[C@@H](N)CCCNC(=N)N)[C@@H](C)O)C(C)C)C(C)C)C(=O)N[C@@H](Cc1ccccc1)C(=O)NCC(=O)N[C@@H](Cc1ccccc1)C(=O)N[C@@H](CS)C(=O)N[C@@H](CCCNC(=N)N)C(=O)N[C@@H](C)C(=O)N[C@@H](CC(=O)O)C(=O)O` [HRGPro] (H-RGGEGTGYFVDFSVRNCPRHHFPRHPNVFGFCRAD-OH; N-terminus and C-terminus assumed), in assay [1], the “increase in number of HEE cells compared with culture in starvation medium” value (“increase in number of HEE cells” below) was 13%. Further, the “inhibition of VEGF-induced migration of HEE cells” value (“inhibition … of HEE cells” for short) in assay [2] was “A tendency”. Also, the “inhibition of VEGF-induced migration of G10 cells” value in assay [3] was “A tendency”.

For the molecule `CC(C)[C@H](NC(=O)[C@H](CC(N)=O)NC(=O)[C@@H]1CCCN1C(=O)[C@H](Cc1c[nH]cn1)NC(=O)[C@H](CCCNC(=N)N)NC(=O)[C@@H]1CCCN1C(=O)[C@H](Cc1ccccc1)NC(=O)[C@H](Cc1c[nH]cn1)NC(=O)[C@H](Cc1c[nH]cn1)NC(=O)[C@H](CCCNC(=N)N)NC(=O)[C@H](CO)NC(=O)[C@H](CS)NC(=O)[C@H](CC(N)=O)NC(=O)[C@H](CCCNC(=N)N)NC(=O)[C@@H](NC(=O)[C@H](CO)NC(=O)[C@H](Cc1ccccc1)NC(=O)[C@H](CC(=O)O)NC(=O)[C@@H](NC(=O)[C@H](Cc1ccccc1)NC(=O)[C@H](Cc1ccc(O)cc1)NC(=O)CNC(=O)[C@@H](NC(=O)CNC(=O)[C@H](CCC(=O)O)NC(=O)CNC(=O)CNC(=O)[C@@H](N)CCCNC(=N)N)[C@@H](C)O)C(C)C)C(C)C)C(=O)N[C@@H](Cc1ccccc1)C(=O)NCC(=O)N[C@@H](Cc1ccccc1)C(=O)N[C@@H](CS)C(=O)N[C@@H](CCCNC(=N)N)C(=O)N[C@@H](C)C(=O)N[C@@H](CC(=O)O)C(=O)O` [HRGSer] (H-RGGEGTGYFVDFSVRNCSRHHFPRHPNVFGFCRAD-OH; N-terminus and C-terminus assumed), the “increase in number of HEE cells” value in assay [1] worked out at 86%. Further, the “inhibition … of HEE cells” value in assay [2] was “inhibited significantly”. Further, the “inhibition of VEGF-induced migration of G10 cells” value in assay [3] is recorded as “inhibited significantly”.

For “FGF: Fibroblast Growth Factor, used to induce migration of G10 cells [reference compound]”, in assay [3] (FGF 20 ng/ml), the “induction of migration of G10 cells” value was “induced migration”.

In the case of VEGF [reference compound], the “induction of migration of HEE cells” value in assay [2] is recorded as “induced migration”.

B1: Histidine-rich glycoprotein (protein)
chain: VSPTDCSAVEPEAEKALDLINKRRRDGYLFQLLRIADAHLDRVENTTVYYLVLDVQESDCSVLSRKYWNDCEPPDSRRPSEIVIGQCKVIATRHSHESQDLRVIDFNCTTSSVSSALANTKDSPVLIDFFEDTERYRKQANKALEKYKEENDDFASFRVDRIERVARVRGGEGTGYFVDFSVRNCPRHHFPRHPNVFGFCRADLFYDVEALDLESPKNLVINCEVFDPQEHENINGVPPHLGHPFHWGGHERSSTTKPPFKPHGSRDHHHPHKPHEHGPPPPPDERDHSHGPPLPQGPPPLLPMSCSSCQHATFGTNGAQRHSHNNNSSDLHPHKHHSHEQHPHGHHPHAHHPHEHDTHRQHPHGHHPHGHHPHGHHPHGHHPHGHHPHCHDFQDYGPCDPPPHNQGHCCHGHGPPPGHLRRRGPGKGPRPFHCRQIGSVYRLPPLRKGEVLPLPEANFPSFPLPHHKHPLKPDNQPFPQSVSESCPGKFKSGFPQVSMFFTHTFPK
As for B1, in assay [1], the “increase in number of HEE cells” value amounted to 6%. Moreover, the “inhibition of proliferation of G10 cells (decrease compared with culture in starvation medium)” value in assay [4] turned out to be 24%. For the same molecule, in assay [2], the “inhibition … of HEE cells” value is on record as “A tendency”. Also, the “inhibition of VEGF-induced migration of G10 cells” value in assay [3] was “A tendency”.

Values taken from patent US20130053330A1, “Fertilization Prediction and Promotion” (Karolinska Institutet Innovations AB, priority 2010, published 2013).
